Consider 33 molecules from ChEMBL document CHEMBL1140792, “Isothiazolidinone inhibitors of PTP1B containing imidazoles and imidazolines” (Bioorg Med Chem Lett, 2008).

Test [1] has as its target T1, Tyrosine-protein phosphatase non-receptor type 1 (Homo sapiens, UniProt P18031).
T1 sequence (P18031 whole entry): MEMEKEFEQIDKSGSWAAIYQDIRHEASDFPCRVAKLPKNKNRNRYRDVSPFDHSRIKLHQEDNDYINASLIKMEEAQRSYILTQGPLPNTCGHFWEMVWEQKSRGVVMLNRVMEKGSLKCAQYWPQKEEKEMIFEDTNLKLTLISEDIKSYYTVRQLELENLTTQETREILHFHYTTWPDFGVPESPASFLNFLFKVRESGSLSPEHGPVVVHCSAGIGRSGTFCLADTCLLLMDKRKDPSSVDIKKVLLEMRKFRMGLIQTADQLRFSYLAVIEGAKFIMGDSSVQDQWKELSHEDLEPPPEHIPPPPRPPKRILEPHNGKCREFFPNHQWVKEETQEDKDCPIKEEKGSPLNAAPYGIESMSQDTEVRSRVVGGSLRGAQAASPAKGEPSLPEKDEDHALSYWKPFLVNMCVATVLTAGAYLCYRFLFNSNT
As to the kind of experiment: Inhibition of PTP1B by pNPP assay.

Test [2] deals with T2, Tyrosine-protein phosphatase non-receptor type 2 (Homo sapiens, UniProt P17706).
T2 sequence (P17706 whole entry): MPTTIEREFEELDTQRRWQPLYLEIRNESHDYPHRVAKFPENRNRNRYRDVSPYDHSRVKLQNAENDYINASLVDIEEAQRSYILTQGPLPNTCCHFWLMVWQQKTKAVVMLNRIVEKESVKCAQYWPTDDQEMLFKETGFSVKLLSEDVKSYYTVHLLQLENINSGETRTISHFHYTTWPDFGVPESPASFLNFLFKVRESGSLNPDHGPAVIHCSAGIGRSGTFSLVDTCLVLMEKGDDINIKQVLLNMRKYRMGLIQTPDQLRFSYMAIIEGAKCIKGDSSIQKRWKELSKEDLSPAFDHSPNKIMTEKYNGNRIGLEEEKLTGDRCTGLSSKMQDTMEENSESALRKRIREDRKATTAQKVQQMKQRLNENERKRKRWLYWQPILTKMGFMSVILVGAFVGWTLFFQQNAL
The experiment in a line: Inhibition of TCPTP by pNPP assay.

Test [3] is described as follows: Selectivity for PTP1B over TCPTP.

By IC50 is commonly meant the midpoint of a concentration-inhibition curve. Lower therefore signals greater potency. With `O=C1CC(c2ccc(CC(NS(=O)(=O)c3cccc(C(F)(F)F)c3)C3=NC[C@@H](Cc4ccccc4)N3)cc2)S(=O)(=O)N1` (some centres not stated), the IC50 in test [1] amounted to 150 nM; in test [2], 120 nM.

With `O=C1CC(c2ccc(CC(NS(=O)(=O)c3cccc(C(F)(F)F)c3)c3ncc(Cc4ccccc4)[nH]3)cc2)S(=O)(=O)N1` (configuration not stated), in test [2], the IC50 was 230 nM.

In the case of `O=C1CC(c2ccc(CC(NS(=O)(=O)c3cccc(C(F)(F)F)c3)c3ncc(CCCc4ccccc4)[nH]3)cc2)S(=O)(=O)N1` (configuration not stated), the IC50 in test [1] came to 52 nM; in test [2], 51 nM.

As to `O=C1CC(c2ccc(CC(NS(=O)(=O)c3cccc(F)c3)c3ncc(Cc4ccccc4)[nH]3)cc2)S(=O)(=O)N1` (configuration not stated), the IC50 amounted to 250 nM in test [1] and 270 nM in test [2].

As to `O=C1CC(c2ccc(CC(NS(=O)(=O)c3cccc(F)c3)C3=NC[C@@H](Cc4ccccc4F)N3)cc2)S(=O)(=O)N1` (some centres not stated), the half-inhibitory concentration (IC50) in test [2] came out at 38 nM.

`O=C1CC(c2ccc(CC(NS(=O)(=O)c3cccc(F)c3)c3ncc(CCCc4ccccc4)[nH]3)cc2)S(=O)(=O)N1` (configuration not stated) displayed a concentration for half-maximal inhibition (IC50) in test [2] of 24 nM.

In the case of `NC(=O)C(Cc1ccc(C2CC(=O)NS2(=O)=O)cc1)NS(=O)(=O)c1cccc(C(F)(F)F)c1` (configuration not stated), the figures for the IC50 in test [1] and in test [2] were 5030 nM and 5000 nM, respectively.

On to `O=C1CC(c2ccc(CC(NS(=O)(=O)c3cccc(C(F)(F)F)c3)C3=NC[C@H](c4ccccc4)N3)cc2)S(=O)(=O)N1` (some centres not stated), for which the IC50 was 2900 nM in test [1] and 2070 nM in test [2].

Regarding `O=C1CC(c2ccc(CC(NS(=O)(=O)c3cccc(F)c3)c3nc(-c4ccccc4)c[nH]3)cc2)S(=O)(=O)N1` (configuration not stated), the IC50 in test [1] is 160 nM; in test [2], 90 nM.

Take `C[C@@H]1CN=C(C(Cc2ccc(C3CC(=O)NS3(=O)=O)cc2)NS(=O)(=O)c2cccc(C(F)(F)F)c2)N1` (some centres not stated): the IC50 is 540 nM in test [1] and 420 nM in test [2].

Take `Cc1cc(CC(NS(=O)(=O)c2cccc(F)c2)C2=NC[C@@H](CCOc3cccc(S(C)(=O)=O)c3)N2)ccc1C1CC(=O)NS1(=O)=O` (some centres not stated): the IC50 is 23 nM in test [1] and 25 nM in test [2].

As to `O=C1CC(c2ccc(CC(NS(=O)(=O)c3cccc(F)c3)c3ncc(CCc4ccccc4)[nH]3)cc2)S(=O)(=O)N1` (configuration not stated), the results for the IC50 in test [1] and in test [2] were 180 nM and 100 nM, respectively.

In test [2], `O=C1CC(c2ccc(CC(NS(=O)(=O)c3cccc(C(F)(F)F)c3)c3ncc(-c4ccccc4)[nH]3)cc2)S(=O)(=O)N1` (configuration not stated) yielded an IC50 of 61 nM.

On to `COC(=O)c1c(O)cccc1OCCCC[C@@H]1CN=C(C(Cc2ccc(C3CC(=O)NS3(=O)=O)c(C)c2)NS(=O)(=O)c2cccc(F)c2)N1` (some centres not stated), for which the IC50 came to 110 nM in test [1] and 65 nM in test [2].

In the case of `O=C1CC(c2ccc(CC(NS(=O)(=O)c3cccc(C(F)(F)F)c3)C3=NC[C@@H](c4ccccc4)N3)cc2)S(=O)(=O)N1` (some centres not stated), the IC50 in test [1] turned out to be 660 nM; in test [2], 430 nM.

Consider `O=C1CC(c2ccc(CC(NS(=O)(=O)c3cccc(F)c3)c3ncc(CCCCc4ccccc4)[nH]3)cc2)S(=O)(=O)N1` (configuration not stated), for which the figures for the IC50 in test [1] and in test [2] were 260 nM and 110 nM, respectively.

Take `O=C1CC(c2ccc(CC(NS(=O)(=O)c3cccc(C(F)(F)F)c3)C3=NCCN3)cc2)S(=O)(=O)N1` (configuration not stated): the values for the IC50 in test [1] and in test [2] were 700 nM and 500 nM, respectively.

In the case of `CC1(C)CN=C(C(Cc2ccc(C3CC(=O)NS3(=O)=O)cc2)NS(=O)(=O)c2cccc(C(F)(F)F)c2)N1` (configuration not stated), the IC50 was 930 nM in test [1] and 700 nM in test [2].

Turning to `O=C1CC(c2ccc(CC(NS(=O)(=O)c3cccc(C(F)(F)F)c3)C3=NC[C@H](Cc4ccccc4)N3)cc2)S(=O)(=O)N1` (some centres not stated), the IC50 in test [1] was found to be 1300 nM; in test [2], 1100 nM.

`O=C1CC(c2ccc(CC(NS(=O)(=O)c3cccc(C(F)(F)F)c3)c3nc4ccccc4[nH]3)cc2)S(=O)(=O)N1` (configuration not stated) displayed an IC50 in test [2] of 43 nM.

For `Cc1cc(CC(NS(=O)(=O)c2cccc(F)c2)C2=NC[C@@H](CCCCOc3cccc(O)c3C(=O)O)N2)ccc1C1CC(=O)NS1(=O)=O` (some centres not stated), the values for the IC50 in test [1] and in test [2] were 22 nM and 46 nM, respectively. Besides, the Ratio IC50 in test [3] stood at 2.

Take `O=C1CC(c2ccc(CC(NS(=O)(=O)c3cccc(F)c3)C3=NC[C@@H](Cc4ccccc4)N3)cc2)S(=O)(=O)N1` (some centres not stated): the IC50 in test [1] was 210 nM; in test [2] it was 140 nM.

For the molecule `O=C1CC(c2ccc(CC(NS(=O)(=O)c3cccc(F)c3)C3=NC[C@@H](CCc4ccccc4)N3)cc2)S(=O)(=O)N1` (some centres not stated), the results for the IC50 in test [1] and in test [2] were 130 nM and 68 nM, respectively.

For `Cc1cc(CC(NS(=O)(=O)c2cccc(F)c2)C2=NC[C@@H](COc3cccc(S(C)(=O)=O)c3)N2)ccc1C1CC(=O)NS1(=O)=O` (some centres not stated), the IC50 in test [1] was found to be 800 nM; in test [2] it was 470 nM.

Regarding `COC(=O)c1c(O)cccc1OCCCCc1cnc(C(Cc2ccc(C3CC(=O)NS3(=O)=O)c(C)c2)NS(=O)(=O)c2cccc(F)c2)[nH]1` (configuration not stated), the results for the IC50 in test [1] and in test [2] were 160 nM and 170 nM, respectively.

Turning to `C[C@H]1CN=C(C(Cc2ccc(C3CC(=O)NS3(=O)=O)cc2)NS(=O)(=O)c2cccc(C(F)(F)F)c2)N1` (some centres not stated), the IC50 in test [1] was 810 nM; in test [2], 670 nM.

For `O=C1CC(c2ccc(CC(NS(=O)(=O)c3cccc(C(F)(F)F)c3)c3ncc(CCCCc4ccccc4)[nH]3)cc2)S(=O)(=O)N1` (configuration not stated), the IC50 in test [1] turned out to be 200 nM; in test [2] it was 160 nM.

With `O=C1CC(c2ccc(CC(NS(=O)(=O)c3cccc(C(F)(F)F)c3)c3ncc[nH]3)cc2)S(=O)(=O)N1` (configuration not stated), the IC50 in test [1] turned out to be 240 nM; in test [2], 270 nM.

Consider `O=C1CC(c2ccc(CC(NS(=O)(=O)c3cccc(C(F)(F)F)c3)c3ncc(CCc4ccccc4)[nH]3)cc2)S(=O)(=O)N1` (configuration not stated), for which the IC50 in test [1] and in test [2] was 170 nM in each case.

For `Cc1cc(CC(NS(=O)(=O)c2cccc(F)c2)c2ncc(CCCOc3cccc(O)c3C(=O)O)[nH]2)ccc1C1CC(=O)NS1(=O)=O` (configuration not stated), the IC50 in test [1] turned out to be 120 nM; in test [2] it was 170 nM.

Consider `Cc1cc(CC(NS(=O)(=O)c2cccc(F)c2)C2=NC[C@@H](CCCOc3cccc(S(C)(=O)=O)c3)N2)ccc1C1CC(=O)NS1(=O)=O` (some centres not stated), for which the IC50 is 160 nM in test [1] and 84 nM in test [2].

On to `Cc1cc(CC(NS(=O)(=O)c2cccc(F)c2)c2ncc(CCCCOc3cccc(O)c3C(=O)O)[nH]2)ccc1C1CC(=O)NS1(=O)=O` (configuration not stated), for which the IC50 in test [1] came out at 32 nM; in test [2], 46 nM.

On to `COC(=O)c1c(O)cccc1OCCCc1cnc(C(Cc2ccc(C3CC(=O)NS3(=O)=O)c(C)c2)NS(=O)(=O)c2cccc(F)c2)[nH]1` (configuration not stated), for which the IC50 was 350 nM in test [1] and 170 nM in test [2].
